Like-named read-outs stand apart in the source and are kept apart here.
Columns and labels:
SARS-CoV-2 (Vic 01) = assay: microbe, parasite or virus in culture; format: cell-based; settings: for Microscopy at day 3: Vero cells, 1000 TCID50 SARS-CoV-2, cytopathic effect (CPE)
ACE2 mRNA = format: cell-based, African green monkey (Chlorocebus sp)
M^pro = M^pro (Severe acute respiratory syndrome coronavirus 2, UniProt P0DTD1); assay: Initial in silico and enzymology studies targeting M^pro
ACE2 protein = ACE2 protein by ELISA in cell lysate of CACO-2 cells; format: cell-based, human; settings: 72 hours, 1 μM daily for three days, compared to UP-P, FIG. 3
Protocol: FIG. 3 illustrates the expression of ACE2 protein by ELISA in cell lysate of CACO-2 cells 72 hours following treatment with andrographolide (UP-A) and piceid (UP-P) (1 μM) daily for three days.
For ACE2 protein measurements, Caco-2 cells were scraped from each well in ice-cold RIPA buffer for ELISA assays. To determine the quantity of ACE2 in Caco-2 cells an Angiotensin Converting Enzyme 2 (ACE2) ELISA Kit (CusaBio, Wuhan, Hubei, China, catalogue number: CSB-E17204m) was performed on samples as per the manufacturers protocol. Briefly, each of the samples was loaded with Sample Diluent in duplicate wells. A standard curve was prepared from a Standard solution provided. 0, 6.25, 12.5, 25, 50, 100, 200 and 400 μg/mL of the standard was added to a series of wells in duplicate. The final volume of each standard well was made up to […] with the addition of Sample Diluent. […] of provided Biotin-antibody (1×) was added to each well and then after washing steps, […] of HRP-avidin antibody (1×). The plate was put on shake mode on a CLARIOstarPlus Multi-Mode Microplate Reader (BMG Labtech, Ortenberg, Germany) to ensure proper mixing before being scanned at Ex/Em=570/540 nm in an end point mode.

SMILES | Microscopy at day 3 (SARS-CoV-2 (Vic 01); drug conc. 0.078125 μM) | Microscopy at day 3 (SARS-CoV-2 (Vic 01); drug conc. 0.15625 μM) | Microscopy at day 3 (SARS-CoV-2 (Vic 01); drug conc. 0.3125 μM) | Microscopy at day 3 (SARS-CoV-2 (Vic 01); drug conc. 0.625 μM) | Microscopy at day 3 (SARS-CoV-2 (Vic 01); drug conc. 1.25 μM) | Microscopy at day 3 (SARS-CoV-2 (Vic 01); drug conc. 2.5 μM) | Microscopy at day 3 (SARS-CoV-2 (Vic 01); drug conc. 5 μM) | Microscopy at day 3 (SARS-CoV-2 (Vic 01); drug conc. 10 μM) | Microscopy at day 3 (SARS-CoV-2 (Vic 01); drug conc. 20 μM) | Microscopy at day 3 (SARS-CoV-2 (Vic 01); drug conc. 40 μM) | ACE2 mRNA expression (ACE2 mRNA; Vero (AGM) cells, 48 h, FIG. 1) | further results
OCC1O[C@@H](Oc2cc(O)cc(/C=C/c3ccc(O)cc3)c2)C(O)C(O)[C@@H]1O (stereo partly drawn) [Piceid, 2-[3-Hydroxy-5-[(E)-2-(4-hydroxyphenyl)ethenyl]phenoxy]-6-(hydroxymethyl)oxane-3,4,5-triol] | CPE | CPE | CPE | CPE | CPE | CPE | CPE | CPE | CPE | CPE | no discernible effect | candidate targeting M^pro (M^pro): promising candidate
C=C1CCC2[C@@](C)(CC[C@@H](O)[C@@]2(C)CO)C1C/C=C1/C(=O)OCC1O (stereo partly drawn) [Andrographis, 3-[2-[Decahydro-6-hydroxy-5-(hydroxymethyl)-5,8a-dimethyl-2-methylene-1-napthalenyl]ethylidene]dihydro-4-hydroxy-2(3H)-furanone] | CPE | CPE | CPE | CPE | CPE | CPE | CPE | CPE | CPE | Toxicity | significantly decreased | ACE2 protein levels by ELISA (ACE2 protein): decreased; IC50 (SARS-CoV-2 (Vic 01); Severe acute respiratory syndrome coronavirus 2, Vero, 72 h, read-out: IC50 calculated from virus titration (TCID50 data)): 3.25 µM; antiviral activity against SARS-CoV-2 (SARS-CoV-2 (Vic 01); alone and in combination with piceid and ursolic acid): showed antiviral activity; time of maximal effect on ACE2 mRNA expression (ACE2 mRNA; FIG. 2, decreasing at 48 hours and diminishing at 72 hours): 24 h; concentration below which loss of efficacy is observed (ACE2 mRNA) (ACE2 mRNA; FIG. 2 dose response): below 0.5 μM; concentration achieving the maximal response (ACE2 mRNA) (ACE2 mRNA; FIG. 2 dose response, no substantial increase in activity at higher doses): 1 µM; ACE2 mRNA expression (ACE2 mRNA; Vero (AGM) cells, 24 hours, FIG. 2): decreasing ACE2 mRNA expression; dose with the greatest effect on ACE2 mRNA expression (ACE2 mRNA; Vero (AGM) cells, 48 h, FIG. 1, lowest dose): 1 µM
C[C@H]1[C@H](C)CC[C@]2(C(=O)O)CC[C@]3(C)C(=CC[C@@H]4[C@@]5(C)CC[C@H](O)C(C)(C)[C@@H]5CC[C@]43C)[C@H]12 [Ursolic acid, (1S,2R,4aS,6aR,6aS,6bR,8aR,10S,12aR,14bS)-10-Hydroxy-1,2,6a,6b,9,9,12a-heptamethyl-2,3,4,5,6,6a,7,8,8a,10,11,12,13,14b-tetradecahydro-1H-picene-4a-carboxylic acid] | CPE | CPE | CPE | CPE | CPE | CPE | CPE | CPE | CPE | Toxicity |  | ACE2 mRNA expression (ACE2 mRNA): decreased ACE2 mRNA expression to a lesser extent in a dose dependent manner

Reference: patent US20230372290A1, “FORMULATIONS COMPRISING BOTANICAL EXTRACTS” (APEX BIOTECH RESEARCH PTY LTD, priority 2020, published 2023)
